Measured values: patent US12570673B2, “c-Myc protein inhibitor, and preparation method therefor and use thereof” (SUZHOU KINTOR PHARMACEUTICALS, INC., priority 2019, dated 2026)

system: HL60 cells; experiment: Anti-cancer activity test, MTT, HL60 cells; format: cell-based; details: Homo sapiens, HL-60, culturing for 72 hours
Procedure: Cell culture medium: Roswell medium RPMI-1640 (+L-glutamine) was added with 10% fetal bovine serum, with 100 units penicillin and 100 μg streptomycin per ml.
Cell culture conditions: 5% CO2, 95% humidity, cultured at 37° C. constant temperature.
2. Cell Inoculation, Drugs Dosing and Culture.
Logarithmic growth phase HL-60, human chronic myeloid leukemia cells (K562), human esophageal squamous cell carcinoma cells (KYSE510), human large cell lung cancer cells (H460) were inoculated into 96-well cell culture plates, 2×10^4 cells per well. Different concentrations of active compounds (dissolved in dimethyl sulfoxide (DMSO) stock solution) were added, so that the final concentration of DMSO was 0.2%, and the control group was DMSO. Each group was repeated three times.
After culturing for 72 hours, 20 µL of thiazolyl blue (MTT) (5 mg/ml, ready for use, dissolved in 1×PBS for cell culture) was added to each well, and incubated at 37° C. for 3 hours.
The 96-well cell culture plates were centrifuged at 1000 rpm for 10 minutes. The supernatant was discarded; 200 μL of DMSO was added to each well and the plate was shaken for 5 minutes.
The absorbance of each well was detected at 570 nm wavelength with a microplate reader, and the IC50 of the compounds was calculated.

SMILES | IC50 [nM]
CC(C)C[C@H](NC(=O)[C@H](CC(C)C)NC(=O)Cn1c2ccccc2c2ccc(OCc3ccccc3)cc21)B(O)O [Compound A105] | 100 to 500
CC(C)C[C@H](NC(=O)[C@@H](CC(=O)NC(c1ccccc1)(c1ccccc1)c1ccccc1)NC(=O)OCC1c2ccccc2-c2ccccc21)B1O[C@@H]2C[C@@H]3C[C@@H](C3(C)C)[C@]2(C)O1 [Compound A9] | 100 to 500
CC(C)C[C@H](NC(=O)[C@H](CC(C)C)NC(=O)Cn1c2ccccc2c2ccc(F)cc21)B(O)O [Compound A103] | 500 to 2000
CC(C)C[C@H](NC(=O)[C@H](CC(C)C)NC(=O)Cn1c2ncccc2c2cccnc21)B(O)O [Compound A107] | 500 to 2000
CC(C)C[C@H](NC(=O)[C@H](CC(C)C)NC(=O)Cn1c2ccccc2c2ccc(C#N)cc21)B(O)O [Compound A101] | 100 to 500
CC(C)C[C@H](NC(=O)[C@H](CC(C)C)NC(=O)Cn1c2ccc(Cl)cc2c2cc(Cl)ccc21)B(O)O [Compound A97] | 500 to 2000
CC(C)C[C@H](NC(=O)[C@H](Cc1c[nH]c2ccccc12)NC(=O)c1ccncc1)B(O)O [Compound A72] | 500 to 2000
CC(C)C[C@H](NC(=O)OCC1c2ccccc2-c2ccccc21)C(=O)N1CCC[C@H]1B(O)O [Compound A82] | 2000 to 10000
CC(C)C[C@H](NC(=O)[C@H](C)NC(=O)OCC1c2ccccc2-c2ccccc21)B(O)O [Compound A86] | < 100
CC(C)C[C@H](NC(=O)[C@H](CC(C)C)NC(=O)Cn1c2ccccc2c2cnccc21)B(O)O [Compound A96] | 100 to 500
CC(C)C[C@H](NC(=O)[C@H](C)NC(=O)c1ccc2c(c1)C(=O)N(C1CCC(=O)NC1=O)C2=O)B(O)O (stereo partly shown) [Compound A90] | 2000 to 10000
CC(C)C[C@H](NC(=O)[C@H](CC(C)C)NC(=O)Cn1c2ccc(Br)cc2c2cc(Br)ccc21)B1O[C@@H]2C[C@@H]3C[C@@H](C3(C)C)[C@]2(C)O1 [Compound A40] | 500 to 2000
CC(C)C[C@H](NC(=O)[C@H](CC(N)=O)NC(=O)CC1c2ccccc2-c2ccccc21)B(O)O [Compound A81] | 100 to 500
CC(C)C[C@H](NC(=O)[C@H](Cc1c[nH]c2ccccc12)NC(=O)c1cnc2ccccc2c1)B(O)O [Compound A75] | < 100
CC(C)C[C@H](NC(=O)[C@H](C)NC(=O)c1ccc2c(c1)C(=O)N(C1CCC(=O)NC1=O)C2=O)B1O[C@@H]2C[C@@H]3C[C@@H](C3(C)C)[C@]2(C)O1 (stereo partly shown) [Compound A53] | 2000 to 10000
CC(C)C[C@H](NC(=O)[C@H](CC(C)C)NC(=O)Cn1c2ccccc2c2ccc(Cl)cc21)B(O)O [Compound A99] | 100 to 500
CC(C)C[C@H](NC(=O)[C@H](CC(=O)NC(c1ccccc1)(c1ccccc1)c1ccccc1)NC(=O)OCC1c2ccccc2-c2ccccc21)B(O)O [Compound A89] | 100 to 500
CC(C)C[C@H](NC(=O)[C@H](CC(C)C)NC(=O)Cn1c2ccccc2c2cc(F)ccc21)B(O)O [Compound A98] | 500 to 2000
COC(=O)C[C@H](NC(=O)CC1c2ccccc2-c2ccccc21)C(=O)N[C@@H](CC(C)C)B(O)O [Compound A80] | < 100
CC(C)C[C@H](NC(=O)[C@H](CC(=O)NC(c1ccccc1)(c1ccccc1)c1ccccc1)NC(=O)OCC1c2ccccc2-c2ccccc21)B1O[C@@H]2C[C@@H]3C[C@@H](C3(C)C)[C@]2(C)O1 [Compound A1] | < 100
CC(C)C[C@H](NC(=O)[C@H](CC(C)C)NC(=O)Cn1c2ccccc2c2ccc(Br)cc21)B(O)O [Compound A102] | 100 to 500
CC(C)C[C@H](NC(=O)[C@@H](C)NC(=O)OCC1c2ccccc2-c2ccccc21)B(O)O [Compound A85] | 100 to 500
CC(C)C[C@H](NC(=O)[C@H](Cc1c[nH]c2ccccc12)NC(=O)CC1CC1)B(O)O [Compound A70] | < 100

Results, then the molecule that gave them:

IC50 [nM] | SMILES
< 100 | COc1ccc2cc(C(=O)N[C@@H](Cc3c[nH]c4ccccc34)C(=O)N[C@@H](CC(C)C)B3O[C@@H]4C[C@@H]5C[C@@H](C5(C)C)[C@]4(C)O3)ccc2c1 [Compound A52]
100 to 500 | CC(C)C[C@H](NC(=O)[C@H](CC(C)C)NC(=O)Cn1c2ccccc2c2cnccc21)B1O[C@@H]2C[C@@H]3C[C@@H](C3(C)C)[C@]2(C)O1 [Compound A58]
500 to 2000 | CC(C)C[C@H](NC(=O)[C@H](CC(C)C)NC(=O)Cn1c2ccccc2c(=O)c2ccccc21)B1O[C@@H]2C[C@@H]3C[C@@H](C3(C)C)[C@]2(C)O1 [Compound A41]
500 to 2000 | CC(C)C[C@H](NC(=O)[C@H](CC(C)C)NC(=O)Cn1c2ncccc2c2cccnc21)B1O[C@@H]2C[C@@H]3C[C@@H](C3(C)C)[C@]2(C)O1 [Compound A64]
< 100 | COC(=O)C[C@H](NC(=O)CC1c2ccccc2-c2ccccc21)C(=O)N[C@@H](CC(C)C)B1O[C@@H]2C[C@@H]3C[C@@H](C3(C)C)[C@]2(C)O1 [Compound A47]
100 to 500 | CC(C)C[C@H](NC(=O)[C@H](CC(C)C)NC(=O)Cn1c2ccccc2c2ccc(Br)cc21)B1O[C@@H]2C[C@@H]3C[C@@H](C3(C)C)[C@]2(C)O1 [Compound A62]
100 to 500 | CC(C)C[C@H](NC(=O)[C@H](Cc1c[nH]c2ccccc12)NCc1ccccc1)B1O[C@@H]2C[C@@H]3C[C@@H](C3(C)C)[C@]2(C)O1 [Compound A46]
500 to 2000 | CC(C)C[C@H](NC(=O)[C@H](Cc1c[nH]c2ccccc12)NC(=O)C12CC3CC(CC(C3)C1)C2)B1O[C@@H]2C[C@@H]3C[C@@H](C3(C)C)[C@]2(C)O1 [Compound A26]
100 to 500 | CC(C)C[C@H](NC(=O)[C@H](Cc1c[nH]c2ccccc12)NCc1ccccc1)B(O)O [Compound A79]
< 100 | CC(C)C[C@H](NC(=O)[C@H](Cc1c[nH]c2ccccc12)NC(=O)CC1CC1)B1O[C@@H]2C[C@@H]3C[C@@H](C3(C)C)[C@]2(C)O1 [Compound A31]
< 100 | CC(C)C[C@H](NC(=O)[C@H](CC(C)C)NC(=O)CC1c2ccccc2-c2ccccc21)B1O[C@@H]2C[C@@H]3C[C@@H](C3(C)C)[C@]2(C)O1 [Compound A24]
< 100 | CNC(=O)C[C@H](NC(=O)CC1c2ccccc2-c2ccccc21)C(=O)N[C@@H](CC(C)C)B1O[C@@H]2C[C@@H]3C[C@@H](C3(C)C)[C@]2(C)O1 [Compound A48]
100 to 500 | CC(C)C[C@H](NC(=O)[C@H](Cc1c[nH]c2ccccc12)NC(=O)c1ccc2ncccc2c1)B1O[C@@H]2C[C@@H]3C[C@@H](C3(C)C)[C@]2(C)O1 [Compound A35]
< 100 | CC(C)C[C@H](NC(=O)[C@H](Cc1c[nH]c2ccccc12)NC(=O)OCc1ccccc1)B(O)O [Compound A66]
< 100 | CC(C)C[C@H](NC(=O)CNC(=O)OCC1c2ccccc2-c2ccccc21)B1O[C@@H]2C[C@@H]3C[C@@H](C3(C)C)[C@]2(C)O1 [Compound A51]
500 to 2000 | CC(C)C[C@H](NC(=O)[C@H](CC(C)C)NC(=O)Cn1c2ccc(Cl)cc2c2cc(Cl)ccc21)B1O[C@@H]2C[C@@H]3C[C@@H](C3(C)C)[C@]2(C)O1 [Compound A59]
< 100 | CC(C)C[C@H](NC(=O)[C@H](C)NC(=O)OCC1c2ccccc2-c2ccccc21)B1O[C@@H]2C[C@@H]3C[C@@H](C3(C)C)[C@]2(C)O1 [Compound A12]
< 100 | CC(C)C[C@H](NC(=O)[C@H](CC(=O)NC(c1ccccc1)(c1ccccc1)c1ccccc1)NC(=O)OCc1ccccc1)B1O[C@@H]2C[C@@H]3C[C@@H](C3(C)C)[C@]2(C)O1 [Compound A20]
500 to 2000 | COc1ccc2c3ccccc3n(CC(=O)N[C@@H](CC(C)C)C(=O)N[C@@H](CC(C)C)B3O[C@@H]4C[C@@H]5C[C@@H](C5(C)C)[C@]4(C)O3)c2c1 [Compound A57]
500 to 2000 | CC(C)C[C@H](NC(=O)[C@H](CC(C)C)NC(=O)Cn1c2ccccc2c2ccncc21)B1O[C@@H]2C[C@@H]3C[C@@H](C3(C)C)[C@]2(C)O1 [Compound A39]
< 100 | CC(C)C[C@H](NC(=O)[C@H](Cc1c[nH]c2ccccc12)NC(=O)NC1CCCC1)B1O[C@@H]2C[C@@H]3C[C@@H](C3(C)C)[C@]2(C)O1 [Compound A44]
< 100 | CC(C)C[C@H](NC(=O)[C@H](CCc1ccccc1)NC(=O)OCC1c2ccccc2-c2ccccc21)B1O[C@@H]2C[C@@H]3C[C@@H](C3(C)C)[C@]2(C)O1 [Compound A17]
100 to 500 | CC(C)C[C@H](NC(=O)[C@H](CC(N)=O)NC(=O)CC1c2ccccc2-c2ccccc21)B1O[C@@H]2C[C@@H]3C[C@@H](C3(C)C)[C@]2(C)O1 [Compound A38]
